# Key:
# Assay type in all cases: in vivo
# [1] = system: ragweed (common ragweed, Ambrosia elatior); assay: Test A postemergence; conditions: for Ragweed plant response rating: 125 g ai/ha, visual injury rating on 0 to 100 scale (0 no effect, 100 complete control), approx. 10 d; for Plant response rating, Ragweed: 500 g ai/ha
# In short: (§1)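 Greenhouse, ~10 d after spray; visual injury vs untreated controls, 0 = no effect, 100 = complete control. Preemergence: directed soil spray over planted seeds. Postemergence: plants 2–10 cm, 1–2 leaf stage. Loam/sand blend. Compound in non-phytotoxic solvent with surfactant.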
# [2] = system: Galium (catchweed bedstraw, Galium aparine); assay: Test A postemergence; conditions: for Galium plant response rating: 125 g ai/ha, visual injury rating on 0 to 100 scale (0 no effect, 100 complete control), approx. 10 d; for Plant response rating, Galium: 500 g ai/ha
# In short: as §1
# Kochia (Kochia scoparia) [3] = assay: Test A postemergence; conditions: for Kochia plant response rating: 125 g ai/ha, visual injury rating on 0 to 100 scale (0 no effect, 100 complete control), approx. 10 d; for Plant response rating, Kochia: 500 g ai/ha
# In short: as §1
# [4] = system: ryegrass, Italian (Italian ryegrass, Lolium multiflorum); assay: Test A postemergence; conditions: for Ryegrass, Italian plant response rating: 125 g ai/ha, visual injury rating on 0 to 100 scale (0 no effect, 100 complete control), approx. 10 d; for Plant response rating, Ryegrass, Italian: 500 g ai/ha
# In short: as §1
# [5] = system: barnyardgrass (Echinochloa crus-galli); assay: Test A postemergence; conditions: postemergence; for Barnyardgrass plant response rating: 125 g ai/ha, visual injury rating on 0 to 100 scale (0 no effect, 100 complete control), approx. 10 d; for Plant response rating, Barnyardgrass: 500 g ai/ha, 0 to 100 scale, 0 no effect, 100 complete control
# In short: as §1
# [6] = system: pigweed (Amaranthus retroflexus); assay: Test A postemergence; conditions: for Pigweed plant response rating: 125 g ai/ha, visual injury rating on 0 to 100 scale (0 no effect, 100 complete control), approx. 10 d; for Plant response rating, Pigweed: 500 g ai/ha
# In short: as §1
# [7] = system: wheat (Triticum aestivum); assay: Test A postemergence; conditions: for Wheat plant response rating: 125 g ai/ha, visual injury rating on 0 to 100 scale (0 no effect, 100 complete control), approx. 10 d; for Plant response rating, Wheat: 500 g ai/ha
# In short: as §1
# corn (Zea mays) = assay: Test A postemergence; conditions: postemergence; for Corn plant response rating: 125 g ai/ha, visual injury rating on 0 to 100 scale (0 no effect, 100 complete control), approx. 10 d; for Plant response rating, Corn: 500 g ai/ha, 0 to 100 scale, 0 no effect, 100 complete control
# In short: as §1
# [8] = system: giant foxtail (Setaria faberii); assay: Test A postemergence; conditions: for Foxtail, Giant plant response rating: 125 g ai/ha, visual injury rating on 0 to 100 scale (0 no effect, 100 complete control), approx. 10 d; for Plant response rating, Foxtail, Giant: 500 g ai/ha
# In short: as §1
# [9] = system: blackgrass (Alopecurus myosuroides); assay: Test A postemergence; conditions: postemergence; for Blackgrass plant response rating: 125 g ai/ha, visual injury rating on 0 to 100 scale (0 no effect, 100 complete control), approx. 10 d; for Plant response rating, Blackgrass: 500 g ai/ha, 0 to 100 scale, 0 no effect, 100 complete control
# In short: as §1
# [10] = system: ducksalad (Heteranthera limosa); assay: Test B flooded paddy test; conditions: Flood, 250 g ai/ha; 0 to 100 scale where 0 is no effect and 100 is complete control; 13 to 15 d
# In short: (§2)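 Plants at 2-leaf stage flooded to 3 cm above soil, with compounds applied directly to paddy water and that depth maintained. Plants kept in greenhouse 13–15 d. Visual rating versus controls on a 0 (no effect) to 100 (complete control) scale.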
# [11] = system: sedge, umbrella (small-flower umbrella sedge, Cyperus difformis); assay: Test B flooded paddy test; conditions: Flood, 250 g ai/ha; 0 to 100 scale where 0 is no effect and 100 is complete control; 13 to 15 d
# In short: as §2
# [12] = system: barnyardgrass (Echinochloa crus-galli); assay: Test B flooded paddy test; conditions: Flood, 250 g ai/ha; 0 to 100 scale where 0 is no effect and 100 is complete control; 13 to 15 d
# In short: as §2
# rice (Oryra sativa) = assay: Test B flooded paddy test; conditions: Flood, 250 g ai/ha; 0 to 100 scale where 0 is no effect and 100 is complete control; 13 to 15 d
# In short: as §2
# [13] = system: ragweed (common ragweed, Ambrosia elatior); assay: Test A preemergence; conditions: for Plant response rating, Ragweed: 125 g ai/ha; for Ragweed plant response rating (0 to 100 scale, 0 is no effect, 100 is complete control): 500 g ai/ha, visual injury approx. 10 d
# In short: as §1
# Kochia (Kochia scoparia) [14] = assay: Test A preemergence; conditions: for Plant response rating, Kochia: 125 g ai/ha, preemergence, 0 to 100 scale (0 no effect, 100 complete control); for Kochia plant response rating (0 to 100 scale, 0 is no effect, 100 is complete control): Preemergence, 500 g ai/ha, visual injury approx. 10 d
# In short: as §1
# [15] = system: ryegrass, Italian (Italian ryegrass, Lolium multiflorum); assay: Test A preemergence; conditions: for Plant response rating, Ryegrass, Italian: 125 g ai/ha; for Ryegrass, Italian plant response rating (0 to 100 scale, 0 is no effect, 100 is complete control): 500 g ai/ha, visual injury approx. 10 d
# In short: as §1
# [16] = system: barnyardgrass (Echinochloa crus-galli); assay: Test A preemergence; conditions: for Plant response rating, Barnyardgrass: 125 g ai/ha, preemergence, 0 to 100 scale (0 no effect, 100 complete control); for Barnyardgrass plant response rating (0 to 100 scale, 0 is no effect, 100 is complete control): Preemergence, 500 g ai/ha, visual injury approx. 10 d
# In short: as §1
# [17] = system: pigweed (Amaranthus retroflexus); assay: Test A preemergence; conditions: for Plant response rating, Pigweed: 125 g ai/ha; for Pigweed plant response rating (0 to 100 scale, 0 is no effect, 100 is complete control): 500 g ai/ha, visual injury approx. 10 d
# [18] = system: giant foxtail (Setaria faberii); assay: Test A preemergence; conditions: for Plant response rating, Foxtail, Giant: 125 g ai/ha, preemergence, 0 to 100 scale (0 no effect, 100 complete control); for Foxtail, Giant plant response rating (0 to 100 scale, 0 is no effect, 100 is complete control): Preemergence, 500 g ai/ha, visual injury approx. 10 d
# In short: as §1
# [19] = postemergence, 0 to 100 scale, 0 no effect, 100 complete control
# [20] = preemergence, 0 to 100 scale (0 no effect, 100 complete control)
# [21] = Postemergence, 0 to 100 scale where 0 is no effect and 100 is complete control
# [22] = Preemergence, visual injury after approximately 10 d, 0 to 100 scale where 0 is no effect and 100 is complete control
SMILES,Ragweed plant response rating ([1]; postemergence),Galium plant response rating ([2]; postemergence),Kochia plant response rating (Kochia (Kochia scoparia) [3]; postemergence),"Ryegrass, Italian plant response rating ([4]; postemergence)",Barnyardgrass plant response rating [5],"Plant response rating, Barnyardgrass [5]",Pigweed plant response rating ([6]; postemergence),Wheat plant response rating ([7]; postemergence),Corn plant response rating (corn (Zea mays)),"Plant response rating, Corn (corn (Zea mays))","Foxtail, Giant plant response rating ([8]; postemergence)",Blackgrass plant response rating [9],"Plant response rating, Blackgrass [9]","Plant response rating, Ducksalad [10]","Plant response rating, Sedge, Umbrella [11]","Plant response rating, Barnyardgrass [12]","Plant response rating, Rice (rice (Oryra sativa))","Ragweed plant response rating (0 to 100 scale, 0 is no effect, 100 is complete control) ([13]; Preemergence)","Plant response rating, Kochia (Kochia (Kochia scoparia) [14])","Kochia plant response rating (0 to 100 scale, 0 is no effect, 100 is complete control) (Kochia (Kochia scoparia) [14])",other results
CN1CC(c2ccc(Cl)cc2)C(C(=O)Nc2cccc(F)c2F)C1=O (stereo not drawn) [Compound 434],20,60,70,0,90,90,60,20,0,70,90,50,50,100,0,70,0,60,70,80,"Plant response rating, Ragweed [1, 19]: 20; Plant response rating, Galium [2, 19]: 60; Plant response rating, Kochia (Kochia (Kochia scoparia) [3]; [19]): 70; Plant response rating, Ryegrass, Italian [4, 19]: 50; Plant response rating, Pigweed [6, 19]: 70; Plant response rating, Wheat [7, 19]: 70; Plant response rating, Foxtail, Giant [8, 19]: 90; Plant response rating, Ragweed [13, 20]: 50; Plant response rating, Ryegrass, Italian [15, 20]: 60; Ryegrass, Italian plant response rating (0 to 100 scale, 0 is no effect, 100 is complete control) ([15]; Preemergence): 90; Plant response rating, Barnyardgrass [16]: 90; Barnyardgrass plant response rating (0 to 100 scale, 0 is no effect, 100 is complete control) [16]: 90; Plant response rating, Pigweed [17, 20]: 80; Pigweed plant response rating (0 to 100 scale, 0 is no effect, 100 is complete control) ([17]; Preemergence): 90; Plant response rating, Foxtail, Giant [18]: 90; Foxtail, Giant plant response rating (0 to 100 scale, 0 is no effect, 100 is complete control) [18]: 100"
CCc1ccc(C2CNC(=O)C2C(=O)Nc2ccccc2F)cc1 (stereo not drawn) [Compound 466],0,0,0,0,80,90,0,0,0,30,20,30,60,0,0,0,0,30,0,0,"Plant response rating, Ragweed [1, 19]: 30; Plant response rating, Galium [2, 19]: 0; Plant response rating, Kochia (Kochia (Kochia scoparia) [3]; [19]): 0; Plant response rating, Ryegrass, Italian [4, 19]: 20; Plant response rating, Pigweed [6, 19]: 0; Plant response rating, Wheat [7, 19]: 20; Plant response rating, Foxtail, Giant [8, 19]: 80; Plant response rating, Ragweed [13, 20]: 0; Plant response rating, Ryegrass, Italian [15, 20]: 0; Ryegrass, Italian plant response rating (0 to 100 scale, 0 is no effect, 100 is complete control) ([15]; Preemergence): 20; Plant response rating, Barnyardgrass [16]: 90; Barnyardgrass plant response rating (0 to 100 scale, 0 is no effect, 100 is complete control) [16]: 90; Plant response rating, Pigweed [17, 20]: 0; Pigweed plant response rating (0 to 100 scale, 0 is no effect, 100 is complete control) ([17]; Preemergence): 0; Plant response rating, Foxtail, Giant [18]: 70; Foxtail, Giant plant response rating (0 to 100 scale, 0 is no effect, 100 is complete control) [18]: 90"
O=C1NCC(c2ccc(C(F)(F)F)cc2F)C1C(=O)Nc1cccc(F)c1F (stereo not drawn) [Compound 475],20,50,40,20,90,90,50,0,0,60,90,30,40,100,0,20,15,60,70,70,"Plant response rating, Ragweed [1, 21]: 30; Plant response rating, Galium [2, 21]: 60; Plant response rating, Kochia (Kochia (Kochia scoparia) [3]; [21]): 60; Plant response rating, Ryegrass, Italian [4, 21]: 30; Plant response rating, Pigweed [6, 21]: 70; Plant response rating, Wheat [7, 21]: 30; Plant response rating, Foxtail, Giant [8, 21]: 90; Plant response rating, Ragweed [13, 22]: 50; Plant response rating, Ryegrass, Italian [15, 22]: 20; Ryegrass, Italian plant response rating (0 to 100 scale, 0 is no effect, 100 is complete control) ([15]; Preemergence): 40; Plant response rating, Barnyardgrass [16]: 90; Barnyardgrass plant response rating (0 to 100 scale, 0 is no effect, 100 is complete control) [16]: 90; Plant response rating, Pigweed [17, 22]: 60; Pigweed plant response rating (0 to 100 scale, 0 is no effect, 100 is complete control) ([17]; Preemergence): 90; Plant response rating, Foxtail, Giant [18]: 90; Foxtail, Giant plant response rating (0 to 100 scale, 0 is no effect, 100 is complete control) [18]: 90"
